Experimental data from US20210052633A1, “HYALURONIC ACID SYNTHESIS PROMOTER, METHOD FOR PROMOTING HYALURONIC ACID SYNTHESIS, AND CELL EVALUATION METHOD” (SEIKAGAKU CORPORATION, priority 2018, published 2021).

Tests used:
[1] = test system: HYAL2 mRNA; assay: Relative mRNA level (real-time PCR, ΔΔCt) in synovial cells; assay type: cell-based, human; settings: HFLS-OA, 0.1% (w/v), 48 hours, vs control
Experimental: (§1) Compound 1 or sodium hyaluronate (HA) (ARTZ Dispo (registered trademark) (manufactured by Seikagaku Corporation)) was mixed in a solution containing a phosphate buffer solution and an α-MEM concentrated medium. Further, each reagent was added and mixed in the resulting solution so that the final concentrations were as follows: 10% (v/v) fetal bovine serum (hereinafter FBS), 10 ng/mL recombinant human IL-1β/IL-1F2 (hereinafter IL-1β), and 1% (w/v) penicillin/streptomycin. As a result, the following three solutions were prepared as test substances.
(§2) Human synovial cells derived from a patient with osteoarthritis (HFLS-OA, CELL APPLICATIONS, INC.) were subcultured and grown in a 175-cm^2 flask. In the cell culture, Basal medium (containing 10% (v/v) Growth supplement and 1% (w/v) penicillin/streptomycin) (manufactured by Cell Applications, Inc.) was used. Thereafter, the cells were seeded in a 6-well plate at 3.0×10^5 cells/2 mL/well and cultured for about 24 hours until confluence was reached. In the cell culture, α-MEM medium (containing 10% (v/v) FBS and 1% (w/v) penicillin/streptomycin) was used. […]
(§3) The cDNA sample was subjected to real-time PCR using Premix ExTaq (Perfect Real Time) (Takara Bio, Inc.), the Ct values of target genes (HAS1, HAS2, HAS3, HYAL1, HYAL2, and HYAL3) and GAPDH were measured, and relative mRNA levels were calculated by the ΔΔCt method.

[2] = test system: HAS2 mRNA; assay: as above; assay type: cell-based, human; settings: HFLS-OA, 0.1% (w/v), 48 hours, vs control
Experimental: as §1, §2, §3

## Aminoethanol-diclofenac-introduced sodium hyaluronate [compound 1]
[1]
  expression of HYAL2 mRNA (relative mRNA level): significantly suppresses
[2]
  expression of HAS2 mRNA (relative mRNA level): significantly promotes
